This passage reports logP and chromatographic logP results from US20100081679A1, “DIAMINOPYRIMIDINES AS FUNGICIDES” (Bayer CropScience AG, priority 2007, published 2010).

The structures appear in SMILES notation. Marks after values point to notes of the source that are not given here.

The series in a line: logP determination via retention times, calibrated with unbranched alkan-2-ones. Format: physicochemical. Particulars: for chromatographic logP: pH 2.3, read-out: logP (pH2.3).
[1] abbreviates: HPLC on reversed-phase C18, method *: 40° C., 0.1% aqueous formic acid and acetonitrile, linear gradient 10% to 95% acetonitrile.
Setting [2] is: HPLC on reversed-phase C18 column (EEC Directive 79/831 Annex V.A8), method *: 40° C., 0.1% aqueous formic acid and acetonitrile, linear gradient 10% to 95% acetonitrile.
The mark [3] stands for this setting: method **: HPLC reversed-phase C 18, 43° C., 0.1% aqueous phosphoric acid and acetonitrile, linear gradient 10% to 95% acetonitrile.
The mark [4] stands for this setting: method *: HPLC reversed-phase C18, 40° C., 0.1% aqueous formic acid and acetonitrile, linear gradient 10% to 95% acetonitrile.
Where [5] appears, read: HPLC reversed-phase C 18, EEC Directive 79/831 Annex V.A8, method **: 43° C., 0.1% aqueous phosphoric acid and acetonitrile, linear gradient 10% to 95% acetonitrile.
Where [6] appears, read: HPLC on reversed-phase C18, method *: 40° C., mobile phase 0.1% aqueous formic acid and acetonitrile, linear gradient 10% to 95% acetonitrile.
Setting [7] is: HPLC on reversed-phase C 18, EEC Directive 79/831 Annex V.A8, method *: 40° C., 0.1% aqueous formic acid and acetonitrile, linear gradient 10% to 95% acetonitrile.
Where [8] appears, read: method *: HPLC, reversed-phase C 18, 40° C., mobile phase 0.1% aqueous formic acid and acetonitrile, linear gradient from 10% to 95% acetonitrile.
The mark [9] stands for this setting: method **: HPLC reversed-phase C 18, temperature 43° C., mobile phase 0.1% aqueous phosphoric acid and acetonitrile, linear gradient 10% to 95% acetonitrile.
The mark [10] stands for this setting: method *: HPLC reversed-phase C 18, temperature 40° C., mobile phase 0.1% aqueous formic acid and acetonitrile, linear gradient 10% to 95% acetonitrile.
The mark [11] stands for this setting: HPLC reversed-phase C 18, EEC Directive 79/831 Annex V.A8, method *: 40° C., 0.1% aqueous formic acid and acetonitrile, linear gradient 10% to 95% acetonitrile.

Take `Cc1cc(O)ccc1Nc1ncc(Br)c(NC2CC2)n1` [compound 112]: the logP under setting [1] was 1.21*. As to `CC(C)(C)C(=O)Cc1ccc(Nc2ncc(Cl)c(NCC3CC3)n2)cc1` [compound 676], the logP under setting [1] is reported as 2.39*. For `CCC(=O)c1cc(Nc2ncc(Cl)c(NC3CC3)n2)ccc1O` [compound 250], the logP under setting [2] is 1.99*. As for `NS(=O)(=O)c1ccc(Nc2ncc(Cl)c(NCC3CC3)n2)cc1` [compound 8], the logP under setting [3] was 1.52**.

For the molecule `CNC(=O)c1cccc(Nc2ncc(Br)c(NCC3CC3)n2)c1` [compound 427], the logP under setting [4] is recorded as 1.53*. Regarding `CON(C(C)=O)c1cccc(Nc2ncc(Cl)c(NC3CC3)n2)c1` [compound 850], under setting [5], the logP is recorded as 1.57**. For `O=C1CCCCN1c1cccc(Nc2ncc(Cl)c(NC3CC3)n2)c1` [compound 713], under setting [1], the logP is given as 1.47*. For the molecule `Fc1ccccc1Nc1ncc(Cl)c(NC2CC2)n1` [compound 275], under setting [6], the logP is reported as 2.09*. Take `CC1COC(=O)N1c1cccc(Nc2ncc(Br)c(NC3CC3)n2)c1` (stereo not shown) [compound 533]: the logP under setting [7] is 1.68*. For `CC(Nc1nc(Cl)ncc1Cl)C1CC1` (stereo not shown) [2,5-dichloro-N-(1-cyclopropylethyl)pyrimidine-4-amine], the chromatographic logP amounted to 2.97. `O=C1OCCN1c1ccc(Nc2ncc(Cl)c(NCC3CC3)n2)cc1` [compound 160]: the logP under setting [1] is 1.39*. Regarding `O=C(O)c1ccc(Nc2ncc(Cl)c(NC3CC3)n2)cc1` [4-{[5-chloro-4-(cyclopropylamino)pyrimidin-2-yl]amino}benzoic acid], the chromatographic logP is 1.55. As for `FC(F)(F)c1ccc(Nc2ncc(Br)c(NC3CC3)n2)cc1` [compound 740], the logP under setting [1] was 3.33*. With `CC(=O)Cc1ccc(Nc2ncc(Br)c(NC3CC3)n2)cc1` [compound 565], the logP under setting [7] is on record as 1.58*. Same read-out and setting: the value for `CC(=O)c1cc(Nc2ncc(Cl)c(NCC3CC3)n2)ccc1O` [compound 553] was 1.85*. In the case of `CC(=O)c1cccc(Nc2ncc(Cl)c(NC3CC3)n2)c1` [Example 5], the logP under setting [3] is listed as 1.84**. For `CC(C)c1ccccc1Nc1ncc(Cl)c(NC2CC2)n1` [compound 872], the logP under setting [1] is given as 1.96*.

Take `CNC(=O)c1ccc(Nc2ncc(Br)c(NCC3CC3)n2)cc1` [compound 424]: under setting [4], the logP was 1.58*. As for `FC(F)(F)c1cnc(Nc2ccccc2)nc1NCC1CC1` [compound 922], the logP under setting [1] is given as 2.99*. In the case of `Clc1cnc(Nc2ccc3ncsc3c2)nc1NC1CC1` [compound 995], the logP under setting [8] is recorded as 1.66*. `COC(=O)Nc1ccc(Nc2ncc(Br)c(NC3CC3)n2)cc1Cl` [compound 430]: the logP under setting [4] is 2.2*. `O=C1NC(=O)C(c2ccc(Nc3ncc(Cl)c(NCC4CC4)n3)cc2)N1` (stereo not shown) [compound 512]: the logP under setting [7] was 1.27*.

With `CN(C)S(=O)(=O)Oc1cccc(Nc2ncc(Cl)c(NC3CC3)n2)c1` [compound 244], the logP under setting [2] was 2.26*. Turning to `FC(F)(F)Oc1ccc(Nc2ncc(Cl)c(NC3CC3)n2)cc1` [compound 375], the logP under setting [4] is 2.84*.

`COCc1cccc(Nc2ncc(C(F)F)c(NCC3CC3)n2)c1` [compound 772]: the logP under setting [1] is listed as 1.73*. On to `Fc1ccc(F)c(Nc2ncc(Cl)c(NC3CC3)n2)c1` [compound 948], for which the logP under setting [1] is given as 2.91*. For the molecule `Fc1ccc(Nc2ncc(Cl)c(NCC3CC3)n2)cc1` [compound 550], the logP under setting [7] was 1.97*. In the case of `O=C1CCCN1Cc1cccc(Nc2ncc(Cl)c(NC3CC3)n2)c1` [compound 433], the logP under setting [4] was 1.45*.

Turning to `CN1CCN(c2ccc(Nc3ncc(Cl)c(NC4CC4)n3)cc2C(F)(F)F)CC1` [compound 846], the logP under setting [5] is 1.38**. Consider `Cc1nc(Nc2cccc(N3CCCC3=O)c2)nc(NC2CC2)c1Cl` [compound 838], for which the logP under setting [5] is on record as 1.47**. Take `CC(C)(C)NS(=O)(=O)c1ccc(Nc2ncc(Cl)c(NC3CC3)n2)cc1` [compound 306]: the logP (HPLC on reversed-phase C18, method **: 43° C., mobile phase 0.1% aqueous phosphoric acid and acetonitrile, linear gradient 10% to 95% acetonitrile) is 2.3**.

`Clc1ccccc1C1(Nc2nc(Nc3ccccc3)ncc2Cl)CC1` [compound 318]: the logP under setting [6] is 3.66*.

Turning to `CC(=O)c1cccc(Nc2ncc(C(F)(F)F)c(NC3CC3)n2)c1` [compound 657], the logP runs as follows: under setting [9], 2.72**; under setting [10], 2.57*;.

As to `CS(=O)(=O)Nc1ccc(Nc2ncc(Br)c(NC3CC3)n2)cc1` [compound 756], under setting [1], the logP is reported as 1.44*. Regarding `ClC1(Cl)CC1CNc1nc(Nc2ccccc2)ncc1Br` (stereo not shown) [compound 808], the logP under setting [11] is recorded as 2.6*. Consider `N#CCc1cccc(Nc2ncc(C(F)(F)F)c(NC3CC3)n2)c1` [compound 976], for which the logP under setting [1] is 2.56*. As to `CCc1cccc(Nc2ncc(C(F)(F)F)c(NC3CC3)n2)c1` [compound 1034], the logP under setting [8] is reported as 3.67*. In the case of `COc1ccc(Nc2ncc(Br)c(NCC3CC3)n2)cn1` [compound 191], the logP under setting [2] is reported as 1.63*. Consider `CSc1cccc(Nc2ncc(Cl)c(N(C)C3CC3)n2)c1` [compound 738], for which the logP (HPLC on reversed-phase C 18, method **: 43° C., 0.1% aqueous phosphoric acid and acetonitrile, linear gradient 10% to 95% acetonitrile) is reported as 3.59**. Turning to `CCCSc1cccc(Nc2ncc(Cl)c(N(C)C3CC3)n2)c1` [compound 983], the logP under setting [8] is given as 4.88*. In the case of `CC(=O)Nc1cccc(Nc2ncc(C(F)(F)F)c(NCC3CC3)n2)c1` [compound 204], the logP under setting [2] is reported as 1.9*. As to `O=C1CCCN1c1cc(F)cc(Nc2ncc(Cl)c(NC3CC3)n2)c1` [compound 625], the logP under setting [9] is listed as 1.83**. On to `COc1ccc(Nc2ncc(Cl)c(NC3CC3)n2)cc1OC` [compound 279], for which, under setting [6], the logP was 1.47*. `COCc1cccc(Nc2ncc(Cl)c(N(Cc3ccc(OC)cc3)C3CC3)n2)c1` [compound 1044]: for the setting “method **: HPLC, reversed-phase C 18, 43° C., mobile phase 0.1% aqueous phosphoric acid and acetonitrile, linear gradient from 10% to 95% acetonitrile”, the logP is listed as 4.07**.

As for `CNC(=O)Oc1cccc(Nc2ncc(Br)c(NC3CC3)n2)c1` [compound 386], the logP under setting [4] is on record as 1.56*.

For the molecule `COCC(=O)Nc1cccc(Nc2ncc(Cl)c(NC3CC3)n2)c1` [compound 793], the logP under setting [11] is given as 1.33*. Consider `CC(C)(C)C(=O)Cc1ccc(Nc2ncc(Br)c(NCC3CC3)n2)cc1` [compound 455], for which the logP under setting [4] is 2.48*.

For the molecule `Clc1cnc(Nc2ccc3[nH]ccc3c2)nc1NC1CC1` [Example 71], under setting [4], the logP was 1.47*.

For `O=C(Nc1ccc(Nc2ncc(C(F)(F)F)c(NCC3CC3)n2)cc1)C(F)(F)F` [compound 203], the logP under setting [2] is given as 2.84*. As to `CCOC(=O)c1cccc(Nc2ncc(Br)c(NCC3CC3)n2)c1` [compound 477], the logP under setting [7] was 2.51*. `CSC(C)c1cccc(Nc2ncc(C(F)(F)F)c(NC3CC3)n2)c1` (stereo not shown) [compound 825]: the logP under setting [11] was 3.81*. Consider `CCOC1(Nc2nc(Nc3ccccc3)ncc2Cl)CC1.Cl` [compound 38], for which, under setting [3], the logP is 2.23**. As to `CC(=O)Nc1cc(Nc2ncc(Cl)c(NC3CC3)n2)ccc1C` [compound 982], under setting [8], the logP is given as 1.34*. For `FC(F)(F)Oc1ccccc1Nc1ncc(Cl)c(NC2CC2)n1` [compound 883], the logP under setting [1] is 3.07*. With `Cc1cccc(C)c1Nc1ncc(Cl)c(NCC2CC2)n1` [compound 682], the logP under setting [1] is listed as 1.87*. Turning to `CSc1ccc(Nc2ncc(Cl)c(NC3CC3)n2)cc1C(F)(F)F` [compound 322], under setting [6], the logP is listed as 3.48*.

As to `Clc1cnc(Nc2ccccc2)nc1Cl` [4,5-Dichloro-N-phenylpyrimidine-2-amine], the chromatographic logP stood at 3.52. Turning to `CCN(C)C(=O)c1cccc(Nc2ncc(Cl)c(NC3CC3)n2)c1` [compound 1060], the logP under setting [8] is given as 1.56*. In the case of `FC(F)(F)c1cc(Br)cc(Nc2ncc(Cl)c(NC3CC3)n2)c1` [compound 998], the logP under setting [8] is given as 4.6*. In the case of `N#CCc1ccc(Nc2ncc(Cl)c(NC3CC3)n2)cc1` [compound 832], the logP under setting [11] was 1.59*. For the molecule `CNC(=O)Oc1cccc(Nc2ncc(C(F)(F)F)c(NC3CC3)n2)c1` [compound 659], the logP is reported as 2.13** under setting [9] and 2.06*; under setting [10].

Take `Clc1cnc(Nc2ccc(Br)cc2)nc1NC1CC1` [compound 281]: under setting [6], the logP was 2.55*. On to `COC(C)c1cccc(Nc2ncc(C(F)(F)F)c(NCC3CC3)n2)c1` (racemic) [compound 962], for which the logP under setting [1] is 3.29*. Regarding `O=C(NC1CC1)c1cccc(Nc2ncc(Br)c(NC3CC3)n2)c1` [compound 628], the logP under setting [10] was 1.49*. As for `CC(C)(C)NC(=O)c1ccc(Nc2ncc(Cl)c(NCC3CC3)n2)cc1` [compound 673], the logP under setting [1] is recorded as 2.21*. In the case of `O=C(c1ccc(Nc2ncc(Cl)c(NCC3CC3)n2)cc1)N1CCOCC1` [compound 696], under setting [1], the logP is listed as 1.59*. Turning to `O=C(O)CCc1cccc(Nc2ncc(Cl)c(NC3CC3)n2)c1` [compound 795], the logP under setting [11] is on record as 1.09*. Take `O=C1CCCN1c1cccc(Nc2ncc(I)c(NC3CC3)n2)c1` [compound 637]: the logP under setting [10] was 1.6*.
